From US10045529B2, “Quat cleaner with glycerin ether ethoxylates” (Ecolab USA Inc., priority 2012, dated 2018)

Legend:
[1] = Cloud point of solfactants in various solutions; format: physicochemical
Text: Various 2-Ethyl Hexanol Glycerin Ether Ethoxylate solfactants were produced using ethoxylation by a KOH Catalyst.
Further the cloud point data for the solfactants in various solutions is shown. The cloud point temperatures show the temperature above which a surfactant-rich phase separates from an aqueous solution. There is a clear relationship between the cloud point and the average EO content of the glycerin ether ethoxylate; as the ethylene oxide content of the solfactant increases, the cloud point and water solubility increase. As the carbon number on the molecule increases, a greater number of moles of ethylene oxide are required to be added to the molecule to retain the same cloud point.

[2] = Glewwe foam meter foam height test; format: physicochemical; details: 50 ppm; for OBSERVATIONS (foam stability after pump stopped): after 5 minutes pump stopped; for Foam Height (in) @ 1 MIN / Foam Height (in) @ 5 MIN: city water 17 gpg, 140° F., 6 psi; for Foam Height (in) @ 1 MIN: 1 minute
Text: Foam testing was completed for the ethoxylated glycerine ether solfactants in comparison to commercially-available ethoxylated alcohols using a Glewwe foam meter. A Glewwe foam meter provides a dynamic foam test rather than a static test, which is considered more appropriate for simulation of industrial conditions. The equipment and general procedure for the Glewwe form test is described in U.S. Pat. Nos. 3,899,387 and 5,447,648, which are herein incorporated by reference in its entirety. The foam meter itself consists of a thermostated reservoir and a pump to recirculate the aqueous medium with foaming tendencies. The foam developed by the action of the aqueous stream impinging on the surface in the reservoir causes foam formation.
The foam heights of the tested compositions were determined using the following method. First 3000 mL of city water (e.g. 17 gpg) was filled into the Glewwe cylinder. The pump was turned on, pressure adjusted to 6 psi, and heated water to 140° F. The commercially available surfactant (or the solfactant according to the invention) was added at 50 ppm in the cylinder and the timer was started. Foam height was recorded at 1 minute and 5 minutes. After 5 minutes the pump was stopped and foam stability characteristics were observed. The cylinder was then drained, rinsed, and the methods repeated.

[3] = Tergotometer detergency test on EMPA soiled swatches
Procedure: Laundry detergent compositions using 500 ppm sodium hydroxide (e.g. caustic) and the indicated conventional Surfonic® surfactant or the glycerin ether ethoxylate solfactant according to the invention were evaluated. A tergotometer test procedure was employed to measure detergency of test compositions according to the invention. A tergotometer along with 500 mL pots and water bath were employed. First, unwashed swatches from the lot numbers to be used in the test are read on the Konica Minolta Spectrophotometer model CM-3600d to establish the average initial (before washing) L value. A sampling of each swatch type is used. The desired wash temperature is programmed into the Tergotometer and its water bath is allowed to heat up to that temperature. 500 mL of the desired water type is added to each Tergotometer pot and allowed to equilibrate to the desired temperature.
The following standard, commercially available (EMPA) soiled swatches were used for baseline testing in the Examples, as shown in Table 9.
The test detergent compositions are weighed out and added to the Tergotometer pots. Various detergent compositions as shown in Tables 10-11 were employed under varying water conditions, including 5 grain water (Table 10) and 17 grain water (Table 11).
The detergent systems were agitated for 10 minutes to mix and dissolve in the water sources. The agitation/mixing speed RPM was adjusted to 200. The temperature of the detergent compositions dissolved in water was 60° C., unless indicated otherwise in the Figures/Examples set forth below. The swatches are added quickly to their respective pots in a left to right sequence in order to minimize differences in exposure time to the detergent systems. A wash run is completed for at least 10 minutes. At the end of the run, the swatches are removed from the pots quickly in a left to right sequence using a forceps and are transferred into 500 mL-1 liter of cool water to rinse. After rinsing with cold tap water, excess water from the swatches was removed by squeezing the swatches. The process was repeated with rinsing and squeezing excess water at least 2 more times. The swatches were air dried on a visa napkin or paper towel on the lab bench.
The swatches were then read on the HunterLab Color Quest and calculate % soil removal (i.e. whiteness) from the difference between the initial (before washing) L value and the final L value (after washing). Percent Soil Removal=(L after−L initial)/(96−L initial)*100 is represented as L*.

[4] = Gel formation with water; format: physicochemical
Text: The low foam profiles and low viscosity of the glycerin ether ethoxylate solfactants as shown in Examples 5 and 6 were further compared to gel curves of conventional ethoxylated alcohols (e.g. Tomadol surfactants). […]

[5] = 5 gpg water, 50 ppm, 500 ppm sodium hydroxide, 60° C., EMPA 116 (Blood, milk and ink, Cotton)
[6] = 5 gpg, 50 ppm, EMPA 101 (olive oil/carbon black, Cotton)
[7] = 5 gpg, 50 ppm, EMPA 104 (olive oil/carbon black, Cotton blend)
[8] = 5 gpg, 50 ppm, EMPA 106 (mineral oil, Cotton)
[9] = 5 gpg, 50 ppm, EMPA 111 (Pig blood, Cotton)
[10] = 5 gpg, 50 ppm, EMPA 114 (Red wine, Cotton)
[11] = Glycerin Ether Ethoxylate %/Water % 10%/90%

Substance | OBSERVATIONS (foam stability after pump stopped) [2] | Foam Height (in) @ 1 MIN [2] [in] | Foam Height (in) @ 5 MIN [2] [in] | % removal EMPA 116 [3, 5] [%] | % removal EMPA 101 [3, 6] [%] | % removal EMPA 104 [3, 7] [%] | % removal EMPA 106 [3, 8] [%] | % removal EMPA 111 [3, 9] [%] | % removal EMPA 114 [3, 10] [%] | % removal EMPA 101 ([3]; 5 gpg, 100 ppm, EMPA 101) [%] | % removal EMPA 104 ([3]; 5 gpg, 100 ppm, EMPA 104) [%] | % removal EMPA 106 ([3]; 5 gpg, 100 ppm, EMPA 106) [%] | % removal EMPA 111 ([3]; 5 gpg, 100 ppm, EMPA 111) [%] | % removal EMPA 114 ([3]; 5 gpg, 100 ppm, EMPA 114) [%] | % removal EMPA 116 ([3]; 5 gpg, 100 ppm, EMPA 116) [%] | % removal EMPA 101 ([3]; 17 gpg, 50 ppm, EMPA 101) [%] | % removal EMPA 104 ([3]; 17 gpg, 50 ppm, EMPA 104) [%] | % removal EMPA 106 ([3]; 17 gpg, 50 ppm, EMPA 106) [%] | % removal EMPA 111 ([3]; 17 gpg, 50 ppm, EMPA 111) [%] | % removal EMPA 114 ([3]; 17 gpg, 50 ppm, EMPA 114) [%] | other results
2-Ethyl Hexanol Glycerin Ether Ethoxylate (1 mole) [2EHGE (1 EO)] | Unstable - Breaks | 3 | 3 | 26 | 27 | 26 | 50.77 | 49 | 0 | 29 | 21 | 48.73 | 52 | −1 | 27 | 19 | 14 | 6 | 32 | 0 | Cloud Point Data 10% in BDG Soln. ([1]; 10% in BDG Soln.): 59.5 °C; % removal EMPA 116 ([3]; 17 gpg, 50 ppm, EMPA 116): 17%; % removal EMPA 101 ([3]; 17 gpg, 100 ppm, EMPA 101): 18%; % removal EMPA 104 ([3]; 17 gpg, 100 ppm, EMPA 104): 15%; % removal EMPA 106 ([3]; 17 gpg, 100 ppm, EMPA 106): 7%; % removal EMPA 111 ([3]; 17 gpg, 100 ppm, EMPA 111): 30%; % removal EMPA 114 ([3]; 17 gpg, 100 ppm, EMPA 114): −1%; % removal EMPA 116 ([3]; 17 gpg, 100 ppm, EMPA 116): 17%
2-Ethyl Hexanol Glycerin Ether Ethoxylate (3 moles) [2EHGE (3 EO)] | Unstable - Breaks | 3.5 | 4 | 34 | 45 | 49 | 60.8 | 50 | 1 | 29 | 25 | 50.39 | 48 | 0 | 29 | 17 | 15 | 14 | 29 | −2 | Cloud Point Data 1% in 10% NaCl [1]: 33 °C; Cloud Point Data 1% in D.I. H2O ([1]; 1% in D.I. H2O): 50.5 °C; Gel Formation ([4]; 20%/80%): None; Gel Formation ([4]; 30%/70%): None; Gel Formation ([4]; 40%/60%): None; Gel Formation ([4]; 50%/50%): None; Gel Formation ([4]; 60%/40%): None; Gel Formation ([4]; 70%/30%): None; Gel Formation ([4]; 80%/20%): None; Gel Formation ([4]; 90%/10%): None; Gel Formation [4, 11]: None; % removal EMPA 116 ([3]; 17 gpg, 50 ppm, EMPA 116): 15%; % removal EMPA 101 ([3]; 17 gpg, 100 ppm, EMPA 101): 19%; % removal EMPA 104 ([3]; 17 gpg, 100 ppm, EMPA 104): 13%; % removal EMPA 106 ([3]; 17 gpg, 100 ppm, EMPA 106): 9%; % removal EMPA 111 ([3]; 17 gpg, 100 ppm, EMPA 111): 27%; % removal EMPA 114 ([3]; 17 gpg, 100 ppm, EMPA 114): −1%; % removal EMPA 116 ([3]; 17 gpg, 100 ppm, EMPA 116): 16%
2-Ethyl Hexanol Glycerin Ether Ethoxylate (5 moles) [2EHGE (5 EO)] | Unstable - Breaks | 4 | 4 | 30 | 40 | 48 | 59.51 | 48 | 2 | 29 | 23 | 49.62 | 45 | 1 | 28 | 19 | 15 | 13 | 30 | 0 | Cloud Point Data 1% in 10% NaCl [1]: 71.5 °C; Gel Formation ([4]; 20%/80%): None; Gel Formation ([4]; 30%/70%): None; Gel Formation ([4]; 40%/60%): None; Gel Formation ([4]; 50%/50%): None; Gel Formation ([4]; 60%/40%): None; Gel Formation ([4]; 70%/30%): None; Gel Formation ([4]; 80%/20%): None; Gel Formation ([4]; 90%/10%): None; Gel Formation [4, 11]: None; % removal EMPA 116 ([3]; 17 gpg, 50 ppm, EMPA 116): 17%; % removal EMPA 101 ([3]; 17 gpg, 100 ppm, EMPA 101): 21%; % removal EMPA 104 ([3]; 17 gpg, 100 ppm, EMPA 104): 19%; % removal EMPA 106 ([3]; 17 gpg, 100 ppm, EMPA 106): 11%; % removal EMPA 111 ([3]; 17 gpg, 100 ppm, EMPA 111): 41%; % removal EMPA 114 ([3]; 17 gpg, 100 ppm, EMPA 114): 0%; % removal EMPA 116 ([3]; 17 gpg, 100 ppm, EMPA 116): 20%
2-Ethyl Hexanol Glycerin Ether Ethoxylate (7 moles) [2EHGE (7 EO)] | Unstable - Breaks | 5 | 4.5 | 33 | 38 | 47 | 59.88 | 52 | 1 | 25 | 17 | 46.8 | 49 | −3 | 19 | 20 | 15 | 11 | 32 | 0 | Cloud Point Data 1% in 10% NaCl [1]: 78 °C; Gel Formation ([4]; 20%/80%): None; Gel Formation ([4]; 30%/70%): None; Gel Formation ([4]; 40%/60%): None; Gel Formation ([4]; 50%/50%): None; Gel Formation ([4]; 60%/40%): None; Gel Formation ([4]; 70%/30%): None; Gel Formation ([4]; 80%/20%): None; Gel Formation ([4]; 90%/10%): None; Gel Formation [4, 11]: None; % removal EMPA 116 ([3]; 17 gpg, 50 ppm, EMPA 116): 16%; % removal EMPA 101 ([3]; 17 gpg, 100 ppm, EMPA 101): 20%; % removal EMPA 104 ([3]; 17 gpg, 100 ppm, EMPA 104): 17%; % removal EMPA 106 ([3]; 17 gpg, 100 ppm, EMPA 106): 9%; % removal EMPA 111 ([3]; 17 gpg, 100 ppm, EMPA 111): 35%; % removal EMPA 114 ([3]; 17 gpg, 100 ppm, EMPA 114): 0%; % removal EMPA 116 ([3]; 17 gpg, 100 ppm, EMPA 116): 17%
